pIC50: −log10 of the molar value. A value given as a limit tells only on which side of the number the result lay.

One experiment relates to cultured human mast cells (CHMC). Description: CHMC low cell density IgE activation: tryptase assay. In kind it is cell-based. The conditions noted are these: Homo sapiens, Mast cell, low cell density CHMC, IgE activation, tryptase release, 3 pt; read-out: LD Tryptase, CHMC, IgE, 3 pt. The essentials:
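Anti-IgE-driven degranulation of cultured human mast cells at low density, 1000–1500 cells/well, was induced over 30 min at 37 °C. It was scored by supernatant tryptase activity on a fluorogenic substrate.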
As to `COc1cc(Nc2ncc(F)c(Nc3ccc4c(c3)NC(=O)C(C)S4(=O)=O)n2)cc(OC)c1OC` (stereo not drawn) [Compound 266], the pIC50 was over 5.00.

The experiment is the same for the next values; noted with them: Homo sapiens, Mast cell, low cell density CHMC, IgE activation, tryptase release, 8 pt; read-out: LD Tryptase, CHMC, IgE, 8 pt.
With `O=C1CS(=O)(=O)c2ccc(Nc3nc(Nc4ccc5cn[nH]c5c4)ncc3F)cc2N1` [Compound 307], the pIC50 was over 5.00.
Still for that read-out and setting: in the case of `COc1cc(Nc2ncc(F)c(Nc3ccc4c(c3)NC(=O)C(C)S4(=O)=O)n2)cc(OC)c1OC` (stereo not drawn) [Compound 266] it was over 5.00; in that of `COc1ccc(Nc2ncc(F)c(Nc3ccc4c(c3)NC(=O)CS4(=O)=O)n2)cc1F` [Compound 309], over 5.00.

The same experiment, now with this note: Homo sapiens, Mast cell, low cell density CHMC, IgE activation, tryptase, 3 pt; read-out: LD Tryptase, CHMC, IgE, 3 pt.
As for `Fc1cnc(Nc2cc(Cl)cc(Cl)c2)nc1Nc1ccc2c(c1)OCO2` [Compound 375], the pIC50 was over 5.00.
Still for that read-out and setting: to `CCN1CCN(c2ccc(Nc3ncc(F)c(NC4CCCC4)n3)cn2)CC1` [Compound 1231] belongs over 5.00; to `Cc1cc(Nc2ncc(F)c(NC(C)C)n2)cnc1N1CCN(C)CC1` [Compound 1242], over 5.00.
On the same count and under the same terms, to `Fc1cnc(Nc2ccc3cnn(CC4CC4)c3c2)nc1Nc1ccc(Cl)c(Cl)c1` [Compound 739, N2-[1-(Cyclopropylmethyl)indazol-6-yl]-N4-(3,4-dichlorophenyl)-5-fluoro-2,4-pyrimidinediamine] belongs over 5.00; to `CCCCn1ncc2cc(Nc3ncc(F)c(Nc4ccc(OC)c(Cl)c4)n3)ccc21` [Compound 710, N2-(1-n-Butylindazol-5-yl)-N4-(3-chloro-4-methoxyphenyl)-5-fluoro-2,4-pyrimidinediamine], over 5.00.
Same read-out and setting: to `COc1cc(Nc2nc(Nc3ccc(C(N)=O)cc3)ncc2F)ccc1Cl` [Compound 1352] belongs over 5.00; to `CN1CCN(c2ccc(Nc3ncc(F)c(NC4CCCC4)n3)cc2C(F)(F)F)CC1` [Compound 1208], over 5.00; to `CCOC(=O)N1CCC(Nc2nc(Nc3ccc(N4CCN(C)CC4)c(C(F)(F)F)c3)ncc2F)CC1` [Compound 1229], over 5.00.
In the case of `CN1CCN(c2ccc(Nc3ncc(F)c(NC4CC(C)(C)N(C)C(C)(C)C4)n3)cc2)CC1` [Compound 1219], the pIC50 is under 5.00.

The same experiment, now with this note: Homo sapiens, Mast cell, low cell density CHMC, IgE activation, tryptase, 8 pt; read-out: LD Tryptase, CHMC, IgE, 8 pt.
Turning to `COc1cc(Nc2ncc(F)c(Nc3ccc4c(c3)OCO4)n2)cc(OC)c1` [Compound 372, N2-(3,5-Dimethoxyphenyl)-5-fluoro-N4-(3,4-methylenedioxyphenyl)-2,4-pyrimidinediamine], the pIC50 was over 5.00.
Turning to `CCCn1ncc2ccc(Nc3ncc(F)c(Nc4ccc5c(c4)NC(=O)C(C)(C)O5)n3)cc21` [Compound 708, N4-(2,2-Dimethyl-3-oxo-4H-benz[1,4]oxazin-6-yl)-5-fluoro-N2-(1-n-propylindazol-6-yl)-2,4-pyrimidinediamine], the pIC50 was over 5.00.
The same measure, in the same setting: to `COc1cc(Nc2nc(Nc3ccc4c(cnn4CC4CC4)c3)ncc2F)ccc1F` [Compound 737, N2-[1-(Cyclopropylmethyl)indazol-5-yl)-5-fluoro-N4-(4-fluoro-3-methoxyphenyl)-2,4-pyrimidinediamine] belongs over 5.00; to `CCCn1ncc2cc(Nc3ncc(F)c(Nc4ccc(F)c(OC)c4)n3)ccc21` [Compound 705, 5-Fluoro-N4-(4-fluoro-3-methoxyphenyl)-N2-(1-n-propylindazol-5-yl)-2,4-pyrimidinediamine], over 5.00.

The same experiment, now with this note: Homo sapiens, Mast cell, low cell density, IgE activation, 3 pt; read-out: LD Tryptase, CHMC, IgE, 3 pt.
On to `CC1(C)Oc2ccc(Nc3nc(Nc4ccc5c(c4)nc(C(F)(F)F)n5CCCO)ncc3F)cc2NC1=O` [Compound 939], for which the pIC50 is over 5.00.
The same measure, in the same setting: to `Cc1onc(-c2ccccc2)c1Nc1nc(Nc2cccc(-c3ncco3)c2)ncc1F` [Compound 525] belongs over 5.00.
For the compound `COc1ccc(Nc2nc(Nc3ccc4c(c3)nc(CS(C)(=O)=O)n4C)ncc2F)cc1Cl` [Compound 966], the pIC50 is over 5.00.
For `CCOCCCn1ncc2cc(Nc3ncc(F)c(Nc4ccc(OC)c(Cl)c4)n3)ccc21` [Compound 871, N4-(3-Chloro-4-methoxyphenyl)-N2-[1-(3-ethoxypropyl)indazol-5-yl]-5-fluoro-2,4-pyrimidinediamine], the pIC50 was over 5.00.
In the case of `Oc1cccc(Nc2nc(Nc3cccc(-c4ncco4)c3)ncc2F)c1` [Compound 511, 5-Fluoro-N4-(3-hydroxyphenyl)-N2-[3-(oxazol-2-yl)phenyl]-2,4-pyrimidinediamine], the pIC50 is over 5.00.
As for `Cc1nc2ccc(Nc3ncc(F)c(Nc4ccc5c(c4)NC(=O)C(C)S5(=O)=O)n3)cc2[nH]1` (stereo not drawn) [Compound 909], the pIC50 was over 5.00.
On the same count and under the same terms, in the case of `Cn1c(CS(C)(=O)=O)nc2cc(Nc3ncc(F)c(Nc4ccc(Cl)c(Cl)c4)n3)ccc21` [Compound 965] it was over 5.00; in that of `COc1ccc(Nc2nc(Nc3ccc4c(cnn4CCCNC(C)=O)c3)ncc2F)nc1Cl` [Compound 890], over 5.00; in that of `CNC(=O)c1ccc(Nc2nc(Nc3ccc(Cl)c(C(=O)NC)c3)ncc2F)cc1Cl` [Compound 484], under 5.00.

Staying with this experiment, now noted: Homo sapiens, Mast cell, low cell density, IgE activation, 8 pt; read-out: LD Tryptase, CHMC, IgE, 8 pt.
Take `COc1ccc(Nc2nc(Nc3ccc4c(c3)nc(C(F)(F)F)n4C)ncc2F)cc1Cl` [Compound 912]: the pIC50 was over 5.00.
Still for that read-out and setting: to `CC1(C)Oc2ccc(Nc3nc(Nc4ccc5c(c4)nc(C(F)(F)F)n5CCCO)ncc3F)cc2NC1=O` [Compound 939] belongs over 5.00; to `CCOCCCn1ncc2cc(Nc3ncc(F)c(Nc4ccc(OC)c(Cl)c4)n3)ccc21` [Compound 871, N4-(3-Chloro-4-methoxyphenyl)-N2-[1-(3-ethoxypropyl)indazol-5-yl]-5-fluoro-2,4-pyrimidinediamine], over 5.00.

The experiment is the same for the next values; noted with them: low cell density CHMC, IgE activation, tryptase readout, 8 pt; read-out: LD Tryptase, CHMC, IgE, 8 pt.
Take `CNC(=O)COc1cccc(Nc2ncc(F)c(Nc3ccc4c(n3)NC(=O)CO4)n2)c1C` [Compound 1068, 5-Fluoro-N2-[2-methyl-3-(N-methylamino)carbonylmethyleneoxyphenyl]-N4-(3-oxo-2H,4H-5-pyrid[1,4]oxazin-6-yl)-2,4-pyrimidinediamine]: the pIC50 is over 5.00.
On the same count and under the same terms, to `CN1CCN(c2cccc(Nc3ncc(F)c(Nc4ccc5c(n4)NC(=O)C(C)(C)O5)n3)c2)CC1` [Compound 1080, N4-(2,2-Dimethyl-3-oxo-4H-5-pyrid [1,4]oxazin-6-yl)-5-fluoro-N2-[3-(4-methylpiperazino)phenyl]-2,4-pyrimidinediamine] belongs over 5.00.

Still in this experiment, the particulars now being: low cell density CHMC, IgE activation, tryptase release, 3 pt; read-out: LD Tryptase, CHMC, IgE, 3 pt.
As to `O=C1CCC(=O)N1CCCn1ncc2cc(Nc3ncc(F)c(Nc4ccc(Cl)c(Cl)c4)n3)ccc21` [Compound 854, N4-(3,4-Dichlorophenyl)-5-fluoro-N2-[1-[3-(N-succinimidopropyl)]indazol-5-yl]-2,4-pyrimidinediamine], the pIC50 was over 5.00.
Same read-out and setting: in the case of `COc1ccc(Nc2nc(Nc3ccc4c(cnn4CCCN4C(=O)CCC4=O)c3)ncc2F)cc1Cl` [Compound 853, N4-(3-Chloro-4-methoxyphenyl)-5-fluoro-N2-[1-[3-(N-succinimidopropyl)]indazol-5-yl]-2,4-pyrimidinediamine] it was over 5.00.

The experiment is the same for the next values; noted with them: low cell density CHMC, IgE activation, tryptase release, 8 point; read-out: LD Tryptase, CHMC, IgE, 8 pt.
`CNC(=O)Cn1ccc2cc(Nc3ncc(F)c(Nc4ccc(OCCO)nc4)n3)ccc21` [Compound 650, 5-Fluoro-N4-[2-(2-hydroxyethyleneoxy)pyrid-5-yl]-N2-[1-(N-methylamino)carbonylmethyleneindol-5-yl]-2,4-pyrimidinediamine]: the pIC50 was over 5.00.
With `CNC(=O)Cn1ccc2cc(Nc3ncc(F)c(Nc4ccc(Cl)c(OC)c4)n3)ccc21` [Compound 653, N4-(4-Chloro-3-methoxyphenyl)-5-fluoro-N2-[1-(N-methylamino)carbonylmethyleneindol-5-yl]-2,4-pyrimidinediamine], the pIC50 was over 5.00.

The same experiment, now with this note: low cell density CHMC, IgE activation, tryptase release, 8 pt; read-out: LD Tryptase, CHMC, IgE, 8 pt.
With `O=C1CCC(=O)N1CCCn1ncc2cc(Nc3ncc(F)c(Nc4ccc(Cl)c(Cl)c4)n3)ccc21` [Compound 854, N4-(3,4-Dichlorophenyl)-5-fluoro-N2-[1-[3-(N-succinimidopropyl)]indazol-5-yl]-2,4-pyrimidinediamine], the pIC50 was under 5.00.
As to `COc1ccc(Nc2nc(Nc3ccc4c(cnn4CCCN4C(=O)CCC4=O)c3)ncc2F)cc1Cl` [Compound 853, N4-(3-Chloro-4-methoxyphenyl)-5-fluoro-N2-[1-[3-(N-succinimidopropyl)]indazol-5-yl]-2,4-pyrimidinediamine], the pIC50 was over 5.00.
Still for that read-out and setting: in the case of `COc1cc(Nc2ncc(F)c(Nc3ccc4c(c3)NC(=O)CS4(=O)=O)n2)cc(OC)c1OC` [Compound 306, 5-Fluoro-N2-(3,4,5-triimethoxylphenyl)-N4-(1,1,3-trioxo-2H,4H-benzo[1,4]thiazin-6-yl)-2,4-pyrimidinediamine] it was over 5.00; in that of `Cc1n[nH]c2cc(Nc3ncc(F)c(Nc4ccc5c(n4)NC(=O)C(C)(C)O5)n3)ccc12` [Compound 813, N4-(2,2-Dimethyl-3-oxo-4H-5-pyrid[1,4]oxazin-6-yl)-5-fluoro-N2-(3-methyl-1H-indazol-6-yl)-2,4-pyrimidinediamine], over 5.00.

The same experiment, now with this note: low cell density CHMC, IgE activation, tryptase, 3 pt; read-out: LD Tryptase, CHMC, IgE, 3 pt.
On to `Cc1cc(Nc2ncc(F)c(Nc3ccc4c(c3)OC(F)(F)C(F)(F)O4)n2)cc(C(F)(F)F)c1` [Compound 366, 5-Fluoro-N2-(3-methyl-5-trifluoromethyl)-N4-[3,4-(tetrafluoroethylenedioxy)phenyl]-2,4-pyrimidinediamine], for which the pIC50 is over 5.00.

The same experiment, now with this note: low cell density CHMC, IgE activation, tryptase, 8 pt; read-out: LD Tryptase, CHMC, IgE, 8 pt.
As to “N2-[3,5-Bis (hydroxymethylene)phenyl]-N4- (3-chloro-4-methoxyphenyl)-5-fluoro-2,4-pyrimidinediamine [Compound 345]”, the pIC50 was over 5.00.

The experiment is the same for the next values; noted with them: low cell density, IgE activation, 3 pt; read-out: LD Tryptase, CHMC, IgE, 3 pt.
As to `Cn1c(N2CCOCC2)nc2cc(Nc3ncc(F)c(Nc4ccc5c(n4)NC(=O)C(C)(C)O5)n3)ccc21` [Compound 946, N4-(2,2-Dimethyl-3-oxo-4H-5-pyrido[1,4]oxazin-6-yl)-5-fluoro-N2-[1-methyl-2-(4-morpholino)benzimidazol-5-yl]-2,4-pyrimidinediamine], the pIC50 was over 5.00.

Still in this experiment, the particulars now being: low cell density, IgE activation, 8 pt; read-out: LD Tryptase, CHMC, IgE, 8 pt.
Regarding “N4- (2,2-Dimethyl-3-oxo-4H-5-pyrid[1,4]oxazin-6-yl)-5-fluoro-[1-(2-hydroxymethyl)-2-trifluoromethylbenzimidazol-5-yl]-2,4-pyrimidinediamine [Compound 924]”, the pIC50 is over 5.00.
On the same count and under the same terms, in the case of `Cn1c(N2CCOCC2)nc2cc(Nc3ncc(F)c(Nc4ccc5c(n4)NC(=O)C(C)(C)O5)n3)ccc21` [Compound 946, N4-(2,2-Dimethyl-3-oxo-4H-5-pyrido[1,4]oxazin-6-yl)-5-fluoro-N2-[1-methyl-2-(4-morpholino)benzimidazol-5-yl]-2,4-pyrimidinediamine] it was over 5.00; in that of `Cn1c(C(F)(F)F)nc2cc(Nc3ncc(F)c(Nc4ccc5c(c4)NC(=O)C(C)(C)O5)n3)ccc21` [Compound 913], over 5.00.
